Results on 1 compound are retold here after US20110028401A1, “CRIPTO BLOCKING MOLECULES AND THERAPEUTIC USES THEREOF” (CONSIGLIO NAZIONALE DELLE RICERCHE, priority 2009, published 2011).

The subject of assay [1] is Cripto-induced Smad2 phosphorylation. The assay can be described thus: Smad2 phosphorylation assay (Western blot) in cripto-/- embryoid bodies. It is filed as cell-based, mouse. The protocol: Two day-old cripto^−/− Embryoid Bodies (EBs) were serum starved for 3 hrs in DMEM (GIBCO) without LIF and in low serum (0.5% FBS). Following starvation, EBs were incubated for 20 min at 37° C. with recombinant Cripto protein (0.5 µg/ml) either alone or in the presence of the indicated amount of peptides. Finally, EBs were dissolved in Laemmli lysis buffer and analyzed by Western blot using the Trans-Blot Semi-dry System (BIO-RAD), following manufacturer's instruction. Anti-Smad2 and anti-phospho-Smad2 (Ser465/467) Antibodies (Cell Signalling Technology) were used, following the manufacturer's instructions.

Assay [2] relates to wild-type EBs. As to the kind of experiment: Neuronal differentiation of wild-type EBs, βIII-tubulin immunofluorescence grades. Format: cell-based, mouse. The following applies: 25 μM peptide, 13 day-old EBs, mean±SD. The method, then:
Undifferentiated ESCs were cultured as previously described^55.
Immunofluorescence analysis on adherent EBs, dopaminergic differentiated ESC and striatal grafts were performed as previously described^29, 35. The following primary antibodies were used: mouse anti-βIII-tubulin (Tuj1, 1:1000, Promega); anti-βIII tubulin (Sigma; 1:400), rabbit anti-tyrosine hydroxylase (TH, 1:200, PelFreez); mouse anti-TH (1:500, Chemicon); Nurr-1 (1:250, Santa Cruz); rabbit anti-Pitx3 (1:200, InVitrogen), rabbit anti-GIRK-2 (1:100, Chemicon); rat anti-DAT (1:1000, Chemicon); rabbit anti-5HT (1:200, Biogenesis); rabbit anti-NET (1:20, Chemicon), rabbit anti-GABA (1:500, Sigma); rabbit anti-Ki67 (1:1000, Neomarkers); and rat anti-Nestin (1:100, Developmental Studies Hybridoma Bank). Appropriate fluorophore conjugated secondary antibodies were used for visualization: (Cyanin-2, Cy3 and Cy5, 1:500, Jackson ImmunoResearch or Alexa-488, Alexa-594 and Alexa-633, 1:200, Molecular Probes).
Thus, if specific and effective, Cripto BP should be able to re-direct ESC fate and promote neural induction and neurogenesis. To address this issue, 2 day-old wild-type EBs were treated as described above, with either control (CP), dimeric (DP) or blocking (BP) peptides and both morphological and immunofluorescence analysis were performed on 13 day-old EBs. […]

The subject of assay [3] is Parkinsonian rats. The assay can be described thus: Amphetamine-induced rotational behaviour of ESC-grafted Parkinsonian rats. It is filed as in vivo, rat. The following applies: for improvement in amphetamine-induced rotations: pre-treated ESCs + peptide infusion. The source says:
Thirty-seven adult male Sprague Dawley rats (250-350 g; from ARC, Australia) were housed and treated according to the guidelines of the Australian and Howard Florey Institute animal ethics committee (07-030). Animals received unilateral stereotaxic injections of 6-OHDA into the substantia nigra pars compacta (SNpc) to create a complete lesion of the midbrain DA neurons, as previously described^29. Lesioned animals were selected for transplantation based on their response to amphetamine induced rotational behaviour as previously described^29. Animals making greater than 6 rotations/min (lesion greater than 80%) were selected for grafting.
Two days prior to grafting animals began cyclosporine-A immune suppression (10 mg/kg). Fourteen days post-lesioning selected animals (determined by behavioural rotations) were again anesthetized and stereotaxically injected with 1 μl of cell suspension at each of the 4 sites as previously described^29. Stereotaxic coordinates of 1st & 2nd Injection (from bregma): anterior 0.2 mm, lateral 3.0 mm, ventral 4.5 and 5.0 mm; 3rd & 4th Injection, anterior 1.0 mm, lateral 2.5 mm, ventral 4.5 and 5.0 mm; incisor bar 0 mm^57). ESCs were differentiated as outlined in FIG. 7a. In brief, ESC colonies were dissected away from the stromal feeder layer and dissociated using collagenase/dispase with agitation (700 μg/ml, Roche, for 20 min, 80 rpm). Cells were subsequently resuspended at a density of 3,000 cells/μl ready for grafting. Five rats received Sham injections (4 μl N2 media, 1 μl/site), 16 rats received a total of 12,000 ESCs (4×1 μl grafts) pre-treated with the Control peptide (of which 9 of these animals also received infusion of the Control peptide) and a further 16 rats received grafts pretreated with the Cripto blocking peptide (9 animals receiving infusion of the Cripto BP).
The peptide infusion was performed by implantation of a cannula into the striatum (Alzet brain infusion kit) connected to a subcutaneously placed osmotic minipump (Alzet) prefilled with either CP or Cripto BP. Implantation was performed at the same time as the cell grafting. Cannula coordinates: anterior 0.5 mm, lateral 1.5 mm, ventral 5.0 mm; incisor bar 0 mm^57. The osmotic pump was capable of continuously delivering the peptide over a 3 weeks period (75 μM, 0.25 μl/hr) upon which time the animals were briefly anaesthetized with isoflurane and the pump removed through a small incision over the scapular region.

The structures appear in SMILES notation.

On to `C[S+]([O-])CCC(N)C(=O)N[C@@H](CSCc1ccccc1)C(=O)N[C@@H](CSCc1ccccc1)C(=O)N[C@@H](CCCCNC(=O)[C@H](CSCc1ccccc1)NC(=O)[C@H](CSCc1ccccc1)NC(=O)[C@@H](N)CC[S+](C)[O-])C(=O)N[C@@H](CCCCNC(=O)[C@H](CCCCNC(=O)[C@H](CSCc1ccccc1)NC(=O)[C@H](CSCc1ccccc1)NC(=O)[C@@H](N)CC[S+](C)[O-])NC(=O)[C@H](CSCc1ccccc1)NC(=O)[C@H](CSCc1ccccc1)NC(=O)[C@@H](N)CC[S+](C)[O-])C(=O)NCC(=O)O` (some centres unmarked) [Cripto BP], for which the “effect on Cripto-induced Smad2 phosphorylation” value is “inhibited” in assay [1] (2 day-old cripto−/− EBs, Cripto 0.5 μg/ml, peptide 2.5 μM and 25 μM); “completely blocked” in assay [1] (peptide 25 μM (125× molar excess)). Moreover, the “EBs with Grade 0 phenotype (absence of neurons)” value in assay [2] is 17.4%±1.15. In addition, the “EBs with Grade 3 phenotype (full neuronal differentiation)” value in assay [2] is 45.6%±5.2. Besides, the “functional improvement in rotational behaviour compared to shams” value in assay [3] (12,000 ESCs pre-treated, without infusion) is “significant reductions in amphetamine induced rotational behaviour as early as week 2 post-grafting”. Moreover, the results for the “improvement in amphetamine-induced rotations” value in assay [3] and in assay [3] (mean±SD) were “significantly improved functional recovery” and 69.6±8.4%, respectively. The “reduction in amphetamine induced rotational behaviour” value in assay [3] (pre-treated ESCs without infusion, 8 weeks postgrafting, mean±SD) is reported as 66.2±8.4%.
